The results in this text go back to patent US6060468A, “N-substituted azaheterocyclic compounds” (Novo Nordisk A/S, priority 1996, dated 2000).

The assay concerns histamine induced paw oedema. The assay can be described thus: Histamine induced paw oedema (rat). It is filed as in vivo, male Sprague-Dawley rats. The settings on record: 1.0 mg/kg, intraperitoneal, 15 min before anaesthetics; histamine 50 microliter 3 mg/ml in right hind paw; swelling after 20 min. Here is the method:
I. Histamine Induced Paw Oedema The rat histamine paw oedema test was performed essentially as described by Amann et al. (Europ. J. Pharmacol. 279, 227-231, 1995). In brief 250-300 g male Sprague-Dawley rats were anaesthetized with pentobarbital sodium, and placed on a 32 degree (Celsius) heated table. Ten minutes later histamine (50 micoliter, 3 mg/ml) was injected in the right hind paw and 20 minutes hereafter the paw swelling was determined by water plethysmography (Ugo Basile). Test compounds were administered intraperitoneally at 15 minutes before the anaesthetics. Values for inhibition of histamine induced oedema response for some representative compounds are recorded in table 1.

Regarding `O=C(O)[C@@H]1CCCN(CCOC2Cc3ccccc3Sc3ccccc32)C1` (stereo partly drawn) [Example 1, 1-(2-(10,11-Dihydrodibenzo[b,f]thiepin-10-yloxy)-1-ethyl)-(3R)-piperidinecarboxylic acid acetate], the “% Oedema inhibition (inhibition of histamine induced oedema response)” value stood at 37%.

As for `Cc1ccc2c(c1)CC(OCCN1CCCC(C(=O)O)C1)c1ccccc1S2.O=C(O)C(=O)O` (centres unmarked) [Example 5, 1-(2-(2-Methyl-10,11-dihydrodibenzo[b,f]thiepin-10-yloxy)-1-ethyl)-3-piperidinecarboxylic acid hydrogen oxalate], the “% Oedema inhibition (inhibition of histamine induced oedema response)” value came out at 49%.
